Laboratory results taken from US12152255B2, “ω-Transaminase mutant obtained by DNA synthetic shuffling combined mutation and use” (priority 2020, dated 2024).
Like-named read-outs stand apart in the source and are kept apart here.

Legend:
[1] = biological target: Aspergillus terreus ω-transaminase mutant I77L-F115L-E133A-H210N-N245D (parent SEQ ID NO: 1; gene SEQ ID NO: 6) (Aspergillus terreus, UniProt Q0C8G1, D224K/E133A/F115L/H210N/I77L/N245D); assay: Kinetic parameters, transamination (acetophenone formation at 245 nm), I77L-F115L-E133A-H210N-N245D; type: biochemical; conditions: phosphate buffer pH 8.0, 0.1 mM PLP
[2] = biological target: Aspergillus terreus ω-transaminase mutant I77L-Q97E-F115L-L118T-E253A-G292D (parent SEQ ID NO: 1; gene SEQ ID NO: 7) (Aspergillus terreus, UniProt Q0C8G1, D224A/E253A/F115L/G292D/I77L/L118T/Q97E); assay: Kinetic parameters, transamination (acetophenone formation at 245 nm), I77L-Q97E-F115L-L118T-E253A-G292D; type: biochemical; conditions: phosphate buffer pH 8.0, 0.1 mM PLP
[3] = biological target: Aspergillus terreus ω-transaminase mutant I77L-E133A-N245D-G292D (parent SEQ ID NO: 1; gene SEQ ID NO: 8) (Aspergillus terreus, UniProt Q0C8G1, E133A/G292D/I77L/N245D); assay: Kinetic parameters, transamination (acetophenone formation at 245 nm), I77L-E133A-N245D-G292D; type: biochemical; conditions: phosphate buffer pH 8.0, 0.1 mM PLP
[4] = biological target: Aspergillus terreus ω-transaminase mutant F115L-H210N-M150C-M280C (parent SEQ ID NO: 1; gene SEQ ID NO: 3) (Aspergillus terreus, UniProt Q0C8G1, E253A/F115L/H210N/M150C/M280C); assay: Kinetic parameters, transamination (acetophenone formation at 245 nm), F115L-H210N-M150C-M280C; type: biochemical; conditions: phosphate buffer pH 8.0, 0.1 mM PLP
[5] = test system: Aspergillus terreus ω-transaminase mutant H210N-N245D-E253A-G292D (parent SEQ ID NO: 1; gene SEQ ID NO: 9); assay: Kinetic parameters, transamination (acetophenone formation at 245 nm), H210N-N245D-E253A-G292D; type: biochemical; conditions: phosphate buffer pH 8.0, 0.1 mM PLP
[6] = biological target: T1, Aspergillus terreus ω-transaminase, wild type (WT-ATA), SEQ ID NO: 1 (Aspergillus terreus, UniProt Q0C8G1); assay: Kinetic parameters, transamination (acetophenone formation at 245 nm), WT-ATA; conditions: phosphate buffer pH 8.0, 0.1 mM PLP
T1 sequence (Q0C8G1 1-325): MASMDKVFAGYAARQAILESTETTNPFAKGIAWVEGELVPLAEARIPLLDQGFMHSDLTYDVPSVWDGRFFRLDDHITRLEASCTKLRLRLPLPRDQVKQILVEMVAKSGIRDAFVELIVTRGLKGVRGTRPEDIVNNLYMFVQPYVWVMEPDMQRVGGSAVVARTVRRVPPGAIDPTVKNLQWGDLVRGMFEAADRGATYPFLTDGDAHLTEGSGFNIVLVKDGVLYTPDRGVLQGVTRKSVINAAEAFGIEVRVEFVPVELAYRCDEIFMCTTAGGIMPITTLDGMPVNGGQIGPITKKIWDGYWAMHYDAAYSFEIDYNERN

[7] = biological target: Aspergillus terreus ω-transaminase mutant F115L-H210N-E253A-I295V (parent SEQ ID NO: 1; gene SEQ ID NO: 5) (Aspergillus terreus, UniProt Q0C8G1); assay: Kinetic parameters, transamination (acetophenone formation at 245 nm), F115L-H210N-E253A-I295V; type: biochemical
[8] = biological target: Aspergillus terreus ω-transaminase mutant F115L-H210N (parent SEQ ID NO: 1; gene SEQ ID NO: 4) (Aspergillus terreus, UniProt Q0C8G1, D231A/F115L/H210N); assay: Kinetic parameters, transamination (acetophenone formation at 245 nm), F115L-H210N; type: biochemical; conditions: phosphate buffer pH 8.0, 0.1 mM PLP
C[C@@H](N)c1ccccc1 = assay: Kinetic parameters, transamination (acetophenone formation at 245 nm), I77L-E133A-N245D-G292D; type: biochemical, Aspergillus terreus; conditions: other: I77L-E133A-N245D-G292D, phosphate buffer pH 8.0, 0.1 mM PLP
CC(=O)C(=O)O = assay: as above; type: biochemical, Aspergillus terreus; conditions: other: I77L-E133A-N245D-G292D, phosphate buffer pH 8.0, 0.1 mM PLP
[9] = substrate: CC(=O)C(=O)O; assay: purified protein, by the assay type; conditions: other: WT-ATA, phosphate buffer pH 8.0, 0.1 mM PLP
[10] = phosphate buffer pH 8.0, 0.1 mM PLP

Question: Which “Kcat^pyruvate” value [1] does the source give for `CC(=O)C(=O)O` [pyruvate, pyruvic acid] here?
Answer: 1.96 ± 0.03 s⁻¹

Question: What about the “kcat/Km^pyruvate” value [1] of the same molecule?
Answer: 990 M⁻¹ s⁻¹

Question: What about the “Kcat^pyruvate” value [2] of the same molecule?
Answer: 2.76 ± 0.01 s⁻¹

Question: What about the “kcat/Km^pyruvate” value [2] of the same molecule?
Answer: 1330 M⁻¹ s⁻¹

Question: What about the “Kcat^pyruvate” value [3] of the same molecule?
Answer: 3.05 ± 0.02 s⁻¹

Question: What about the “kcat/Km^pyruvate” value [3] of the same molecule?
Answer: 1180 M⁻¹ s⁻¹

Question: And the “Kcat^pyruvate” value [4]?
Answer: 3.87 ± 0.03 s⁻¹

Question: What about the “kcat/Km^pyruvate” value [4] of the same molecule?
Answer: 1450 M⁻¹ s⁻¹

Question: And the “Kcat^pyruvate” value [5]?
Answer: 1.89 ± 0.03 s⁻¹

Question: And the “kcat/Km^pyruvate” value [5]?
Answer: 3010 M⁻¹ s⁻¹

Question: And the “Kcat^pyruvate” value [6]?
Answer: 0.50 ± 0.01 s⁻¹

Question: And the “kcat/Km^pyruvate” value [6]?
Answer: 2220 M⁻¹ s⁻¹

Question: And the “Kcat^pyruvate” value [7, 10]?
Answer: 3.17 ± 0.01 s⁻¹

Question: What about the “kcat/Km^pyruvate” value [7, 10] of the same molecule?
Answer: 2030 M⁻¹ s⁻¹

Question: What about the Km ([7]; read-out: Km^pyruvate, phosphate buffer pH 8.0, 0.1 mM PLP) of the same molecule?
Answer: 1560 ± 70 µM

Question: And the “Kcat^pyruvate” value [8]?
Answer: 2.55 ± 0.01 s⁻¹

Question: What about the “kcat/Km^pyruvate” value [8] of the same molecule?
Answer: 1710 M⁻¹ s⁻¹

Question: For `C[C@@H](N)c1ccccc1` [α-MBA, (R)-(+)-α-methylbenzylamine], which Km ([7]; read-out: Km^α-MBA, phosphate buffer pH 8.0, 0.1 mM PLP) is on record?
Answer: 800 ± 30 µM

Question: “Aspergillus terreus ω-transaminase mutant I77L-E133A-N245D-G292D (parent SEQ ID NO: 1; gene SEQ ID NO: 8) (Aspergillus terreus NIH2624; E133A/G292D/I77L/N245D)” was tested. Which Km (C[C@@H](N)c1ccccc1) did it give?
Answer: 840 ± 50 µM

Question: What about the Km (CC(=O)C(=O)O) of the same molecule?
Answer: 2590 ± 20 µM

B1: Aspergillus terreus ω-transaminase, wild type (WT-ATA), SEQ ID NO: 1 (Aspergillus terreus NIH2624) (protein)
chain: T1 sequence (Q0C8G1 1-325)
Question: B1 was tested. Which Km [9] did it give?
Answer: 230 ± 20 µM
